Read-outs that look alike come from different tables or passages of the source.
Tests used:
[1] = biological target: T1, 5-HT2c (Homo sapiens, UniProt P28335); assay: Radioligand binding, 5-HT2c ([3H]Mesulergine); conditions: Table 4; [3H]Mesulergine 1 nM; read-out: Binding affinity, IC50 (nM) 5-HT2c
T1 construct: purchased Euroscreen/BioSignal Packard Inc
T1 sequence (P28335 33-458): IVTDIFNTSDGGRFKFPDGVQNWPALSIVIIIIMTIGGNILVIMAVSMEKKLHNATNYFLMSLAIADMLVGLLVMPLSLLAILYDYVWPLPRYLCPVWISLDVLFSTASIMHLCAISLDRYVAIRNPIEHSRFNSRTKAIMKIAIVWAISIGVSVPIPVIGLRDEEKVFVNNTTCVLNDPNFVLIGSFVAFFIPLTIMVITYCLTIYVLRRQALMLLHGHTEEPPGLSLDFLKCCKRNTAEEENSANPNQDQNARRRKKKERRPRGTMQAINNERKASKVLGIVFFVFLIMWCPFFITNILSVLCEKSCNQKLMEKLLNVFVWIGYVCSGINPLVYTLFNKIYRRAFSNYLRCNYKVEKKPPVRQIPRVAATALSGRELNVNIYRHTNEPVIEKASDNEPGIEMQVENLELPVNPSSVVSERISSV

[2] = biological target: T2, hD2L (Homo sapiens, UniProt P14416); assay: Radioligand binding, dopamine D2 ([3H]spiperone); conditions: Table 4; [3H]spiperone 1 nM; read-out: Binding affinity, IC50 (nM) D2
T2 construct: purchased BioSignal Packard Inc., Montreal, Canada
T2 sequence (P14416 whole entry): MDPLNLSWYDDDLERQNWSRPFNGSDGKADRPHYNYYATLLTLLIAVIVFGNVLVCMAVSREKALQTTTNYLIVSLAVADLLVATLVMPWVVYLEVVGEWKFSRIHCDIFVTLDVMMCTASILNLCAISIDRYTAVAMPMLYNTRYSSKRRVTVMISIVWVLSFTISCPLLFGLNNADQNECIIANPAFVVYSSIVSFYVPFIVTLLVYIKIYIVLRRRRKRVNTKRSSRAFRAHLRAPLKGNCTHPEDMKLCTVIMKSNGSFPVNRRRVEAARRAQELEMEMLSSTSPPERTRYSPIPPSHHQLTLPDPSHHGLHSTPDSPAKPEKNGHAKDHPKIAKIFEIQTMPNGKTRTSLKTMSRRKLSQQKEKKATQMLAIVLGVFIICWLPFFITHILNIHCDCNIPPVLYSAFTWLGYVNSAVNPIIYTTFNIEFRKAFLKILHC
In short: (§1)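 Membrane competition binding with [3H]spiperone (1 nM) for hD2L and hD3, or [3H]YM-09151-2 (0.06 nM) for hD4.2, each in receptor-specific Tris-HCl pH 7.4 buffer containing Mg2+/EDTA (D3 and D4 also with K+, Ca2+; D3 with 120 mM NaCl). Compounds were tested at 7-8 concentrations in duplicate, and IC50 was derived by nonlinear regression across three assays.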

[3] = biological target: T3, hD4.2 receptor (Homo sapiens, UniProt P21917, DEL265-296); assay: Radioligand binding, dopamine D4 ([3H]YM-09151-2); conditions: Table 4; [3H]YM-09151-2 0.06 nM; read-out: Binding affinity, IC50 (nM) D4
T3 construct: purchased BioSignal Packard Inc., Montreal, Canada
T3 sequence (P21917 with tags, fused parts or gaps DEL265-296): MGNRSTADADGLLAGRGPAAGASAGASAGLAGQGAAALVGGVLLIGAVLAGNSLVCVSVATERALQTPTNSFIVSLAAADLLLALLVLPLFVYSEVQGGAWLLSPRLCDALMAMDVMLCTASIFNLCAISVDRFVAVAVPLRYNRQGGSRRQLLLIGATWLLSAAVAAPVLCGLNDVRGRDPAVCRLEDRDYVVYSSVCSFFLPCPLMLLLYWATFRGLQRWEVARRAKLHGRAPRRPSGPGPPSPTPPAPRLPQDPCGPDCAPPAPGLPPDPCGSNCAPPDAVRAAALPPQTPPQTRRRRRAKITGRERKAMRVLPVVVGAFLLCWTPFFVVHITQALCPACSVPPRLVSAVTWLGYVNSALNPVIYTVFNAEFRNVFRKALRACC
In short: as §1

[4] = test system: rats; conditions: water maze; cited from earlier work
[5] = cited from earlier work
[6] = frontal cortex and dorsal hippocampus; cited from earlier work
[7] = test system: rats; assay: Methamphetamine-induced disruption of prepulse inhibition (PPI) in rats; assay type: in vivo, rat
Procedure: To assay antipsychotic properties of the compounds according to the invention, prepulse inhibition (PPI) of acoustic startle in animals was performed. Startle response was measured using SR-LAB startle chamber (San Diego Instruments, San Diego, USA). The animal enclosure was housed in a ventilated and sound-attenuated startle chamber with 60 dB ambient noise level, and consisted of a Plexiglas cylinder 40 mm in diameter on a platform, connected to a piezoelectric accelerometer which detects and transducer motion within the cylinder. Acoustic noise bursts were presented through a loudspeaker mounted 24 ? above the animal. […] Each startle session began with a 5-min acclimatization period in the chamber to 68 dB background noises. The test session consisting of the following four different trial types was carried for all experiments: a 40 ms broadband 120 dB burst (P; pulse alone trial), P preceded 100 ms earlier by a 20 ms noise burst 10 dB above background (pP; prepulse+pulse trial), a 40 ms broadband 78 dB burst (prepulse alone trial), and a no stimulus trial (background). Eight trials of each type were presented in a pseudorandom order (total32 trials) with an average interval of 15 sec. separating each trial. An extra 5 pulse-alone trials were presented at the beginning and end of each test session, but were not used in the calculation of PPI values. PPI was defined as the percent reduction in startle amplitude in the presence of prepulse compared to the amplitude in the absence of the prepulse using the following Math Equation 1. […] Differences were considered significant at P<0.05. Statistical analyses were conducted using SigmaStat software (SigmaStat, Jandel Co., San Rafael, Calif.). The data were expressed as means±SEM.

[8] = test system: rat; conditions: cited from earlier work; for anticonvulsant activity: background literature
[9] = biological target: T4, 5-HT6 receptors (Homo sapiens, UniProt P50406); conditions: background literature, cited from earlier work; for affinity at 5-HT6 receptors, in words: antipsychotics
T4 sequence (P50406 whole entry): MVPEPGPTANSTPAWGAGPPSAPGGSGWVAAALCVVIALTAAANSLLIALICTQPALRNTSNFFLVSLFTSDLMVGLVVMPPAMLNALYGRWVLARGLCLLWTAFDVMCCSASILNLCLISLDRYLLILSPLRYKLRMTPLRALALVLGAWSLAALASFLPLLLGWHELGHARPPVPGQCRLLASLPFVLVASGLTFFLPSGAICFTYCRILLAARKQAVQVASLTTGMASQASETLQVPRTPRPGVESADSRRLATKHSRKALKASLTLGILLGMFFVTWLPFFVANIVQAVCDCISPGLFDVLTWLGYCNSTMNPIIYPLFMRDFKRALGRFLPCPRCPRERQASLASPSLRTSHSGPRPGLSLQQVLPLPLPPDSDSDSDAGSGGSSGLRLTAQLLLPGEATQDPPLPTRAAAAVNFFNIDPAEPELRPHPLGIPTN

[10] = biological target: T4, 5-HT6 receptors; conditions: human 5-HT6 receptors, background literature; cited from earlier work
[11] = test system: rats; conditions: cited from earlier work
[12] = test system: rats; conditions: cited from earlier work; remark: listed apart in the source
[13] = biological target: T5, hD3 (Homo sapiens, UniProt P35462); assay: Radioligand binding, dopamine D3 ([3H]spiperone); conditions: Table 4; [3H]spiperone 1 nM; read-out: Binding affinity, IC50 (nM) D3
T5 construct: purchased BioSignal Packard Inc., Montreal, Canada
T5 sequence (P35462 whole entry): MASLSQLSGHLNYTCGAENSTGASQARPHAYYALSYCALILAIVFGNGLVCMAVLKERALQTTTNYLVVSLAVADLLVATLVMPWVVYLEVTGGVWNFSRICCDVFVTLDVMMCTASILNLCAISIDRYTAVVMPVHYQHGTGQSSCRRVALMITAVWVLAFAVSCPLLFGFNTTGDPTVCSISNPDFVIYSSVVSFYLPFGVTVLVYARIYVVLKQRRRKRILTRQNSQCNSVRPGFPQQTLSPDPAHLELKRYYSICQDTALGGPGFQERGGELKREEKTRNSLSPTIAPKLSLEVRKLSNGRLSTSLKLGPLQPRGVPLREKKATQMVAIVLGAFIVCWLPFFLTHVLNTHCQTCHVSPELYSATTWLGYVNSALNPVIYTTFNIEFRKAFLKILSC
In short: as §1

[14] = biological target: T6, Human serotonin 5-HT6 receptor (Homo sapiens, UniProt P50406); assay: [3H]LSD binding assay on cloned 5-HT6 receptor membranes
T6 construct: made in house; host or cells: insect Sf21 cells (baculovirus vector BacPAK8)
T6 sequence (P50406 whole entry): as the sequence (P50406 whole entry) above

[15] = biological target: T7, 5-HT2a (Homo sapiens, UniProt P28223); assay: Radioligand binding, 5-HT2a ([3H]Ketanserin); conditions: Table 4; [3H]Ketanserin 1 nM; read-out: Binding affinity, IC50 (nM) 5-HT2a
T7 construct: purchased Euroscreen/BioSignal Packard Inc
T7 sequence (P28223 whole entry): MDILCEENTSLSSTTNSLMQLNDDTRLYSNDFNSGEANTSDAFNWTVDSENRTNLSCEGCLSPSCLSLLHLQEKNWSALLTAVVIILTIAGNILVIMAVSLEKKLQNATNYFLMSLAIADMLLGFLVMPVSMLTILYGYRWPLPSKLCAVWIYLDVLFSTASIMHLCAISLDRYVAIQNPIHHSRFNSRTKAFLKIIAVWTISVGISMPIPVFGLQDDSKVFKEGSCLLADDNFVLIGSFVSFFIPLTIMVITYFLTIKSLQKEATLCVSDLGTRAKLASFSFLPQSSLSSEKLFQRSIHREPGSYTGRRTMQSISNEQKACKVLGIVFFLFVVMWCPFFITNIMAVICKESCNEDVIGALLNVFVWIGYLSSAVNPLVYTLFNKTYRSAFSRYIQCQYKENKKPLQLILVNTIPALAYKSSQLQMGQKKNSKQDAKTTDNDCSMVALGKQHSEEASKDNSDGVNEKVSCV

[16] = Rotarod deficit in mice; assay type: in vivo, mouse; conditions: mouse, in vivo, po, unit printed as image, read-out: TD50 (median neurotoxic dose)
Procedure: (§2) The mouse was placed on a 1 inch diameter knurled plastic rod rotating at 6 rpm (Ugo-Basile, Milano, Italy), and the rotarod deficit (%) was obtained by counting the number of animals fallen from the rotating rod within 1 min [Dunham et al., 1957] at 60, 90 and 120 min after the injection of the compound according to the invention(200, 300 or 400 ? ). […] The compounds of the examples were suspended in 3% Tween 80 solution, and were administered (p.o.) 60 min before the testing.

[17] = test system: mice; assay: Rotarod deficit in mice; assay type: in vivo, mouse
Procedure: as §2

[18] = biological target: T8, 5-HT1a (Homo sapiens, UniProt P08908); assay: Radioligand binding, 5-HT1a ([3H]8-OH-DPAT); conditions: Table 4; [3H]8-OH-DPAT 0.5 nM; read-out: Binding affinity, IC50 (nM) 5-HT1a
T8 construct: purchased Euroscreen/BioSignal Packard Inc
T8 sequence (P08908 1-422): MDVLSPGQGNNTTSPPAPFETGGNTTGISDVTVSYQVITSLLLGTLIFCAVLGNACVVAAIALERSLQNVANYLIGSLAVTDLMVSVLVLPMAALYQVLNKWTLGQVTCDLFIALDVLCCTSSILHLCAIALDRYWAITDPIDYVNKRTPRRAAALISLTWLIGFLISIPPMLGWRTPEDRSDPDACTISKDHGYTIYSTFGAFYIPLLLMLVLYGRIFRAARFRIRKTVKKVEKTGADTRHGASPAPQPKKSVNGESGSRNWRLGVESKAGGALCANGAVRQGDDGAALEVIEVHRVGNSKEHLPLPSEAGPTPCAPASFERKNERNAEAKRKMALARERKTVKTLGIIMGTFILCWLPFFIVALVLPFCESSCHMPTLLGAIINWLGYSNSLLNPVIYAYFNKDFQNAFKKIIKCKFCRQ
In short: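 Displacement of the radiolabel is read on purchased receptor membranes. Conditions follow the vendor's standard method.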

[19] = biological target: D1 (Homo sapiens, UniProt P21728); assay: Radioligand binding, dopamine D1; conditions: Table 4; read-out: Binding affinity, IC50 (nM) D1
Chain of D1 (P21728 whole entry): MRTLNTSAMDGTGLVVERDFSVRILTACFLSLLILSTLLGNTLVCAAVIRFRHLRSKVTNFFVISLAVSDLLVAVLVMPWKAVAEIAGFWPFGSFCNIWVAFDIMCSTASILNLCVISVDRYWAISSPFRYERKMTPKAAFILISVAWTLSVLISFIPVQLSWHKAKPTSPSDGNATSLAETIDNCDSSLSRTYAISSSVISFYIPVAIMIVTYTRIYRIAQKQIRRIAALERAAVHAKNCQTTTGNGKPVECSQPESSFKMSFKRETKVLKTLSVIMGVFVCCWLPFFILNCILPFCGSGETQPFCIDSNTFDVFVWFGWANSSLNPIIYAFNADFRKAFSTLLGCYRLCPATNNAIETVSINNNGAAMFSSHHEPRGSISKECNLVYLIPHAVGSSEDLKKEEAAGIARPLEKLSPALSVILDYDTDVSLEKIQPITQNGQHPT

[20] = biological target: T9, 5-HT7 (Homo sapiens, UniProt P34969); assay: Radioligand binding, 5-HT7 ([3H]LSD); conditions: Table 4; [3H]LSD 3 nM; read-out: Binding affinity, IC50 (nM) 5-HT7
T9 construct: purchased Euroscreen/BioSignal Packard Inc
T9 sequence (P34969 whole entry): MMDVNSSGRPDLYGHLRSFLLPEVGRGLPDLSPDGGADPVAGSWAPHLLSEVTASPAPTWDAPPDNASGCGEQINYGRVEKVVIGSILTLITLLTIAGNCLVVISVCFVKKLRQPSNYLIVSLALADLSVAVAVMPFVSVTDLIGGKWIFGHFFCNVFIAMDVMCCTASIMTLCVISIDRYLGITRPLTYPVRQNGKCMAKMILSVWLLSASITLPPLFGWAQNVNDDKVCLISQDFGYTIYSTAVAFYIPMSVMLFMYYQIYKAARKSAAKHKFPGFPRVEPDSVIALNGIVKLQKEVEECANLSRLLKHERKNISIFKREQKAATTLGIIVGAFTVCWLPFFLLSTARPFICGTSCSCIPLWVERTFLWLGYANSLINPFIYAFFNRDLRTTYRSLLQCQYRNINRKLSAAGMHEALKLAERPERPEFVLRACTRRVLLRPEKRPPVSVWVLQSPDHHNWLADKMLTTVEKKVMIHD

[21] = Table 2, 1.87 nM [3H]LSD, 37 C, 60 min, read-out: IC50 (nM), binding affinity to the 5-HT6 receptor
[22] = Table 4, read-out: Binding affinity, IC50 (nM) 5-HT6

SB-271046 [reference compound]
IC50 [1]: 3960 nM | IC50 [2]: > 10000 nM | IC50 [3]: > 10000 nM | retention of a previously learned task [4]: significant improvement | oral bioavailability ([5]; background literature): > 80% | extracellular glutamate levels [6]: increased extracellular glutamate levels in frontal cortex and dorsal hippocampus by several fold | mean startle amplitude compared with methamphetamine group ([7]; administered 30 min before methamphetamine): no significant differences | disruption of PPI by methamphetamine, effect of pretreatment ([7]; rats, i.p., 30 min before methamphetamine (3, i.p.), P<0.05): reversed significantly | anticonvulsant activity [8]: possess anticonvulsant activity

CNc1cc(NS(=O)(=O)c2ccc(N)cc2)cc(NC)n1 [Ro 63-0563]
Ki [9]: 0.012 µM

COc1ccc(S(=O)(=O)Nc2cc(Br)cc(F)c2Br)cc1N1CCNCC1 [SB-357134]
retention of a previously learned task [4]: significant improvement | clearance and bioavailability, in words ([5]; in vivo): low clearance rate and excellent oral bioavailability | seizure threshold ([8]; rat maximal electroseizure threshold, oral administration): potent and dose-dependent increase

COc1ccc2c(c1)c(CCN(C)C)cn2S(=O)(=O)c1ccccc1 [MS-245]
pA2, antagonist [10]: 8.88

CN(C)CCCN1c2ccccc2Sc2ccc(Cl)cc21 [chlorpromazine]
affinity at 5-HT6 receptors, in words [9]: bind with high affinity

CNc1cc(NS(=O)(=O)c2ccc(N)cc2)nc(NC)n1 [Ro 04-6790]
food intake [11]: decreased food intake | induction of behavior of yawning, stretching, and chewing [12]: capable of inducing this same effect | anticonvulsant activity [8]: possess anticonvulsant activity

CN(C)CC/C=C1/c2ccccc2Sc2ccc(Cl)cc21 [chlorprothixene]
affinity at 5-HT6 receptors, in words [9]: bind with high affinity

COc1ccc(C2(C)C(=O)c3c(N4CCN(C)CC4)cc(Cl)cc3N(Cc3cccc(N)c3)C2=O)cc1 (centres unmarked) [Example 9, 1-(3-Amino-benzyl)-7-chloro-3-(4-methoxy-phenyl)-3-methyl-5-(4-methyl-piperazin-1-yl)-1H-quinoline-2,4-dione]
IC50 [1]: > 10000 nM | IC50 [13]: 821 nM | IC50 [2]: > 10000 nM | IC50 [3]: > 10000 nM | IC50 [14, 21]: 5.2 nM | IC50 [14, 22]: 5.2 nM | IC50 [15]: > 10000 nM | TD50 at 120 min [16]: > 400 mg/kg | Rotarod deficit (%) ([17]; 200 p.o. (dose unit not given)): 0% | Rotarod deficit (%) ([17]; 300 p.o. (dose unit not given)): 0% | Rotarod deficit (%) ([17]; 400 p.o. (dose unit not given)): 0% | melting point: 90 to 93 °C | IC50 [18]: > 10000 nM | IC50 [19]: > 10000 nM | IC50 [20]: > 10000 nM

CCNc1ccc([C@]2(C)C(=O)c3c(N4CCN(C)CC4)cc(Cl)cc3N(Cc3ccccc3)C2=O)cc1 (stereo in doubt) [Example 6, 1-Benzyl-7-chloro-3-(4-ethylamino-phenyl)-3-methyl-5-(4-methyl-piperazin-1-yl)-1H-quinoline-2,4-dione]
IC50 [1]: > 1000 nM | IC50 [13]: 981 nM | IC50 [2]: > 1000 nM | IC50 [3]: > 10000 nM | IC50 [14, 21]: 3.4 nM | IC50 [14, 22]: 3.4 nM | IC50 [15]: > 1000 nM | TD50 at 120 min [16]: > 400 mg/kg | Rotarod deficit (%) ([17]; 200 p.o. (dose unit not given)): 0% | Rotarod deficit (%) ([17]; 300 p.o. (dose unit not given)): 0% | Rotarod deficit (%) ([17]; 400 p.o. (dose unit not given)): 0% | melting point: 153 to 155 °C | IC50 [18]: > 10000 nM | IC50 [19]: > 1000 nM | IC50 [20]: > 1000 nM

COc1ccc(C2(C)C(=O)c3c(N4CCNCC4)cc(Cl)cc3N(Cc3cccc(Br)c3)C2=O)cc1 (centres unmarked) [Example 33, 1-(3-Bromo-benzyl)-7-chloro-3-(4-methoxy-phenyl)-3-methyl-5-piperazin-1-yl-1H-quinoline-2,4-dione]
IC50 [1]: > 1000 nM | IC50 [13]: > 1000 nM | IC50 [2]: > 1000 nM | IC50 [3]: > 10000 nM | IC50 [14, 21]: 1.8 nM | IC50 [14, 22]: 1.8 nM | binding affinity at 5-HT6 receptor labeled by [3H]LSD, in words ([14]; comment on Table 2): significant affinities | IC50 [15]: > 1000 nM | TD50 at 120 min [16]: > 400 mg/kg | Rotarod deficit (%) ([17]; 200 p.o. (dose unit not given)): 0% | Rotarod deficit (%) ([17]; 300 p.o. (dose unit not given)): 0% | Rotarod deficit (%) ([17]; 400 p.o. (dose unit not given)): 0% | melting point: 113 to 114 °C | IC50 [18]: > 1000 nM | IC50 [19]: > 1000 nM | IC50 [20]: > 10000 nM
